Test results as given in patent US20030175735A1, “Recombinant adenylcyclase and use thereof for screening molecules with proteolytic activity” (priority 2000, published 2003).

Key:
[1] = test system: HIV protease mutant B1; settings: modified protease B1
Description: (§3) The mutations are described relative to the amino acid sequence (1-99) of the reference virus protease (V: Val; I: Ile; M: Met; T: Thr; L: Leu and P: Pro). The level of resistance of the mutants corresponds to the relative increase (compared to the wild-type protease) in the concentration of inhibitors required to inhibit 50% of the viral replication.

[2] = test system: HIV protease mutant V1; settings: modified protease V1 (L63P)
Description: as §3

[3] = test system: HIV protease mutant V2; settings: modified protease V2 (L10I, L63P, L90M)
Description: as §3

[4] = test system: HIV protease mutant B3; settings: modified protease B3 (M46I, V77I, V82T)
Description: as §3

[5] = test system: HIV protease mutant V2; assay: system in cis: phenotype of DHT1 with pKACV2; type: cell-based
Protocol: (§1) The bacteria are cultured in Luria-Bertani (LB) liquid or agar (15 g/l agar) medium. Their ability to ferment sugars is tested on McConkey agar medium containing 1% of maltose (Miller, 1972, Experiments in Molecular Genetics, Cold Spring Harbor Lab. Press, Cold Spring Harbor, N.Y.). The antibiotics are used at the following concentrations: ampicillin: 100 μg/ml and kanamycin: 50 μg/ml. The protease inhibitors, indinavir (Crixivan, Merck) and saquinavir (Invirase, Roche) are dissolved, respectively, in ethanol and in water (final concentration 20 mM) and then diluted in the culture media at the concentrations indicated.
(§2) For this study, the B1, B3, V1 and V2 proteases are inserted between amino acids 224 and 225 of the adenyl cyclase and the chimeric proteins obtained are expressed in the DHT1 strain (plasmids pKACB1, pKACB3, pKACV1 and pKACV2).

[6] = test system: HIV protease mutant V2; type: cell-based
Protocol: as §1
The DNA encoding the modified proteases was cloned into the vector of pUC19 (example 2) and the plasmids obtained were cotransformed with pKACp5 into the DHT1 strain. The phenotype of the transformed bacteria is observed on McConkey maltose medium containing or not containing protease inhibitors.

[7] = test system: HIV protease mutant B3; assay: system in cis: phenotype of DHT1 with pKACB3; type: cell-based
Protocol: as §1, §2

[8] = test system: wild-type HIV protease; type: cell-based; settings: for phenotype in the presence of inhibitor: Cya− in the absence of inhibitor
Protocol: as §1
A chimeric protein (ACPr) was therefore constructed (example 2), into which is inserted, between amino acids 224 and 225 of the adenyl cyclase, the HIV protease (99 residues) and its two cleavage sequences p5 and p6 (each one 8 amino acids) .

[9] = biological target: wild-type HIV protease (Human immunodeficiency virus type 1 group M subtype B, UniProt P04585); type: cell-based
Protocol: as §1
In order to test this system, a recombinant protein according to the invention, ACp5, into which is inserted, between amino acids 224 and 225 of the adenyl cyclase, the p5 cleavage site of the HIV protease, was generated. The plasmid expressing this protein (pKACp5, example 2) was cotransformed into an E. coli cya strain, with a compatible plasmid carrying or not carrying the wild-type HIV protease (pUCVIH or pUC19).

| Structure (SMILES) | Resistance to inhibitor: relative increase (compared to the wild-type protease) in the concentration required to inhibit 50% of the viral replication [1] | Resistance to inhibitor: relative increase (compared to the wild-type protease) in the concentration required to inhibit 50% of the viral replication [2] | Resistance to inhibitor: relative increase (compared to the wild-type protease) in the concentration required to inhibit 50% of the viral replication [3] | Resistance to inhibitor: relative increase (compared to the wild-type protease) in the concentration required to inhibit 50% of the viral replication [4] | phenotype on medium containing 20 μM of saquinavir [5] | concentration needed for the bacteria to become Cya+ [6] | phenotype at 10 μM ([7]; 10 μM saquinavir) | phenotype on medium containing 20 μM of saquinavir ([8]; pKACPr, system in cis) | phenotype at 10 μM ([8]; pKACPr, system in cis, 10 μM saquinavir) | phenotype in the presence of inhibitor ([8]; pKACPr, system in cis) | concentration needed for the bacteria to become Cya+ [9] | phenotype on medium containing 100 μM indinavir [5] | concentration up to which the bacteria have a Cya− phenotype [7] | concentration up to which the bacteria have a Cya− phenotype [8] | phenotype on medium containing 100 μM indinavir ([8]; pKACPr, system in cis) |
| --- | --- | --- | --- | --- | --- | --- | --- | --- | --- | --- | --- | --- | --- | --- | --- |
| CC(C)(C)NC(=O)[C@@H]1C[C@@H]2CCCC[C@@H]2CN1C[C@@H](O)[C@H](Cc1ccccc1)NC(=O)[C@H](CC(N)=O)NC(=O)c1ccc2ccccc2n1 [saquinavir] | 1 X | 1 X | 53 X | 3 X | Cya^− | 20 µM | Cya^− | red colonies | red | Cya^+ | 10 µM | – | – | – | – |
| CC(C)(C)NC(=O)[C@@H]1CN(Cc2cccnc2)CCN1C[C@@H](O)C[C@@H](Cc1ccccc1)C(=O)N[C@H]1c2ccccc2C[C@H]1O [indinavir] | 1 X | 1 X | 4 X | 13 X | – | 50 µM | – | – | – | Cya^+ | 50 µM | Cya^− | 100 µM | 50 µM | red colonies |
